Broadly, the inhibition is the change of the read-out against control, counted positive when it falls. In general, IC50 refers to the concentration needed to halve the response being measured.

The target in test [1] is T1, P-type calcium channels (Rattus norvegicus, UniProt P54282).
T1 construct: Male rats (Sprague-Dawley, 200-220 g) were killed by decapitation and neocortices were isolated by blunt dissection; from tissue; host or cells: Sprague-Dawley rat neocortex, crude synaptosomes
As to the kind of experiment: Inhibition of depolarization induced Ca++ flux (CaFl), 45Ca++ influx into rat neocortical synaptosomes. In kind it is biochemical. The settings on record: for inhibition at 10 µM / inhibition at 30 µM: read-out: CaFl, percent inhibition; for IC50: 30 mM KCl stimulated 45Ca flux, rat neocortical synaptosomes. From the text: A large influx of calcium from extracellular compartments into neurons is observed after opening of voltage-dependent calcium channels. The opening of calcium channels may be induced by a K^+ -stimulated depolarization of neuronal membranes. A crude synaptosomal preparation contains small vesicles surrounded by neuronal membranes, and it is feasible to study the opening of voltage-operated calcium channels in such a preparation. In the test described below, the influx of ^45 Ca^++ into rat synaptosomes is studied under depolarized conditions. The effect of the test compounds on the depolarization induced calcium update can thus be studied. The calcium influx measured in this assay is believed to represent the P-type calcium channels.
Male rats (Sprague-Dawley, 200-220 g) were killed by decapitation and neocortices were isolated by blunt dissection. White matter was dissected away and the gray matter was placed in cold sucrose buffer (composition (mM): sucrose 320, TRIS base 5.0, EDTA 0.1; adjusted to pH 7.3 with HCl). The tissue was homogenized using 5 strokes at 500 rpm followed by 4 strokes at 800 rpm. The homogenate was centrifuged at 1075 g for 10 minutes. The pellet was discarded and the supernatant was centrifuged at 15800 g for 10 minutes at 4° C., and the supernatant was discarded. The final pellet was resuspended in incubation buffer and kept on ice.
Fifty-microliter aliquots of neocortical synaptosome suspension were preincubated for 5 minutes at 25° C. in 400 μL of incubation buffer containing drug or control solvent. The synaptosomes were then exposed to a tracer quantity of ^45 CaCl2 (1 μCi/mL) in combination with either 3 mM KCl (basal calcium flux or 30 mM KCl (stimulated calcium flux). The calcium flux was terminated by filtration over glass-fiber filters (GFB) using a Skatron 12-well harvester; filters were washed with a pressurized, continuous flow of 3 mL wash buffer (composition (mM): choline chloride 140, EGTA 3, HEPES 22; adjusted to pH 7.3 with TRIS base). Radioactivity of the filters was measured by scintillation counting. Basal calcium flux was subtracted from stimulated calcium flux in both control- and drug-treated conditions, and data were expressed as percent inhibition of the adjusted control response.

The target of test [2] is sodium channels. The settings on record: rat neocortical membranes, 5 nM [3H]batrachotoxinin, Cheng-Prusoff; read-out: BTX Binding.

T1 sequence (P54282 whole entry): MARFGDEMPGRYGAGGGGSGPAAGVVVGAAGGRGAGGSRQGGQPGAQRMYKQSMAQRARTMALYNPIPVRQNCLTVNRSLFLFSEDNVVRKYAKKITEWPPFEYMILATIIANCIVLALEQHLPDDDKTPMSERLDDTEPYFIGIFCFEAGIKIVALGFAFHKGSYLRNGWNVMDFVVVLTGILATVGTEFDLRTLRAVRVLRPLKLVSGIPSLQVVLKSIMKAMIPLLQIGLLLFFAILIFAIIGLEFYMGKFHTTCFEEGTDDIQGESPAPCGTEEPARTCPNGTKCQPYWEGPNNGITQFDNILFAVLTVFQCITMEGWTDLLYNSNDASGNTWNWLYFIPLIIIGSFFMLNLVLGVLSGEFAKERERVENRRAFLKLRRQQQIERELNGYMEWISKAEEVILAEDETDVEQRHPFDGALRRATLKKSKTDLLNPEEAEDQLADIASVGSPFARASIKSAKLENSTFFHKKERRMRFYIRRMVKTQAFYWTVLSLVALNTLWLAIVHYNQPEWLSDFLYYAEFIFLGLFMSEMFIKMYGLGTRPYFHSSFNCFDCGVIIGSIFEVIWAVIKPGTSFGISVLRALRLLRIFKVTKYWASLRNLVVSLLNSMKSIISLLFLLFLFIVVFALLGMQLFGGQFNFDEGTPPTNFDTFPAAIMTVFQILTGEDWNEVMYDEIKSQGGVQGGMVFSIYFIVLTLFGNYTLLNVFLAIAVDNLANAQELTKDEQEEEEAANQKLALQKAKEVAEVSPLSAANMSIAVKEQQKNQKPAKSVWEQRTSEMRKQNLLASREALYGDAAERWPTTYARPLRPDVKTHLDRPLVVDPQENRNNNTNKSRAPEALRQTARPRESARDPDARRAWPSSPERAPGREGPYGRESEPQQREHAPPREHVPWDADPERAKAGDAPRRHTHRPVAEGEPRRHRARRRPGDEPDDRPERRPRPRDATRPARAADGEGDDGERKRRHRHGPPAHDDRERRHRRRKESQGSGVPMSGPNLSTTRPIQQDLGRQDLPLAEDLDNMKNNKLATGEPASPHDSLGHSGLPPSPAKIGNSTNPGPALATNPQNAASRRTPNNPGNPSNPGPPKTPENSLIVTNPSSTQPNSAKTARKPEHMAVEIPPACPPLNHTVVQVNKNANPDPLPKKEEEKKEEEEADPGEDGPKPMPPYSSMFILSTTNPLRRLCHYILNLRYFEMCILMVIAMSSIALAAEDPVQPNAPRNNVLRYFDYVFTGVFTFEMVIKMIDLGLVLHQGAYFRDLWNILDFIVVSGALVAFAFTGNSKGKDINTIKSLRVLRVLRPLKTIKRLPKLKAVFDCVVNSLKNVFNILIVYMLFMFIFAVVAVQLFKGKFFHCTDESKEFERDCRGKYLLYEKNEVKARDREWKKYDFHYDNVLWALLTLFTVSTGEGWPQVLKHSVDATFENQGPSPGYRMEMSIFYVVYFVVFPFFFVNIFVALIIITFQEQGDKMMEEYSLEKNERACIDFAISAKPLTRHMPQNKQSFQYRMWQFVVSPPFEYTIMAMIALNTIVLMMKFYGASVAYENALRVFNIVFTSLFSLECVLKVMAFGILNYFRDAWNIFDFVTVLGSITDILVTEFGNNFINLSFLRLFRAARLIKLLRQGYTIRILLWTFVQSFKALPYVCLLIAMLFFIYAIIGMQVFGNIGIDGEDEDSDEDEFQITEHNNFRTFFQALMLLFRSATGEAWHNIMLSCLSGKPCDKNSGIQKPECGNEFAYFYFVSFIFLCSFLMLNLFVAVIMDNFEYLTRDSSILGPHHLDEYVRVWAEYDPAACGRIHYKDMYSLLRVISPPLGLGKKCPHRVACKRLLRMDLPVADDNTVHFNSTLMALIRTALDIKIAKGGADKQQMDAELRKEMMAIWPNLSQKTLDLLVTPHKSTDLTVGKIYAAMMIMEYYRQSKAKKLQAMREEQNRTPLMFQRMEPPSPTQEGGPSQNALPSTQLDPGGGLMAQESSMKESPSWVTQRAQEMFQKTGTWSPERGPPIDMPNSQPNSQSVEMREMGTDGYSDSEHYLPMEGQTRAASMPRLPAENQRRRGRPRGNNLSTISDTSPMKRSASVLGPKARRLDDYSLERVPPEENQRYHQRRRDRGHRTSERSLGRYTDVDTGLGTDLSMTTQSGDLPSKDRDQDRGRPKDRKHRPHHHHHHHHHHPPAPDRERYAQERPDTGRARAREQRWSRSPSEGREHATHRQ

`COc1ccc(CCN(Cc2ccccc2Cl)CC(O)COc2cccc(C)c2)cc1OC` (centres unmarked) [Example 17, 1-{(2-Chlorobenzyl)-[2-(3,4-dimethoxyphenyl)ethyl]-amino}-3-m-tolyloxy-propan-2-ol]: in test [1], the inhibition at 10 µM came out at 46% and the inhibition at 30 µM was 55%. As to `COc1ccc(CCN(Cc2ccccc2)CC(O)COc2cccc(C)c2)cc1OC` (centres unmarked) [Example 2, 1-{Benzyl-[2-(3,4-dimethoxyphenyl)-ethyl]amino}-3-m-tolyloxy-propan-2-ol], the IC50 in test [1] came out at 9.2 µM. Moreover, the Ki in test [2] was 520 nM. As for `COc1ccc(CCN(C)CC(O)COc2cccc(C)c2)cc1OC` (centres unmarked) [Example 25, 1-{[2-(3,4-Dimethoxyphenyl)-ethyl]-methylamino}-3-m-tolyloxy-propan-2-ol], in test [1], the inhibition at 30 µM is 31%. With `COc1ccc(CCN(Cc2ccccc2)CC(O)CSc2cccc3ccccc23)cc1OC` (centres unmarked) [Example 19, 1-{Benzyl-[2-(3,4-dimethoxyphenyl)-ethyl]-amino}-3-(naphthalen-1-ylsulfanyl)-propan-2-ol], the IC50 in test [1] worked out at 2.5 µM. In addition, the Ki in test [2] was 200 nM. For the compound `COc1ccc(CCN(Cc2cccc([N+](=O)[O-])c2)CC(O)COc2cccc(C)c2)cc1OC` (centres unmarked) [Example 6, 1-[[2-(3,4-Dimethoxyphenyl)-ethyl]-(3-nitrobenzyl)amino]-3-m-tolyloxy-propan-2-ol], in test [1], the inhibition at 10 µM was determined as 57% and the inhibition at 30 µM is 62%.

Regarding `COc1ccc(CCN(C)CC(O)COc2ccc3c(c2)CCC3)cc1OC` (centres unmarked) [Example 27], in test [1], the inhibition at 10 µM was 43% and the inhibition at 30 µM amounted to 69%. Consider `COc1ccc(CCN(Cc2cccc3ccccc23)CC(O)COc2cccc(C)c2)cc1OC` (centres unmarked) [Example 9, 1-{[2-(3,4-Dimethoxyphenyl)-ethyl]-naphthalen-1-ylmethylamino}-3-m-tolyloxy-propan-2-ol], for which the IC50 in test [1] came to 9.9 µM. Same read-out and setting: for `COc1ccc(CCN(C)CC(O)COc2cccc3ccccc23)cc1OC` (centres unmarked) [Example 28, 1-{[2-(3,4-Dimethoxyphenyl)-ethyl]-methylamino}-3-(naphthalen-1-yloxy)-propan-2-ol] the value was 6.8 µM; for `COc1ccc(CCN(Cc2ccccc2F)CC(O)COc2cccc(C)c2)cc1OC` (centres unmarked) [Example 13, 1-[[2-(3,4-Dimethoxyphenyl)-ethyl]-(2-fluorobenzyl)amino]-3-m-tolyloxy-propan-2-ol], 1.8 µM; for `COc1ccccc1CN(CCc1ccc(OC)c(OC)c1)CC(O)COc1cccc(C)c1` (centres unmarked) [Example 12, 1-[[2-(3,4-Dimethoxyphenyl)-ethyl]-(2-methoxybenzyl)amino]-3-m-tolyloxy-propan-2-ol], 4.1 µM. On to `COc1ccc(CN(CCc2ccc(OC)c(OC)c2)CC(O)COc2cccc(C)c2)cc1` (centres unmarked) [Example 8, 1-[[2-(3,4-Dimethoxyphenyl)-ethyl]-(4-methoxybenzyl)amino]-3-m-tolyloxy-propan-2-ol], for which the IC50 in test [1] worked out at 5.4 µM. The Ki in test [2] worked out at 152 nM. For `COc1ccc(CCN(Cc2ccc([N+](=O)[O-])cc2)CC(O)COc2cccc(C)c2)cc1OC` (centres unmarked) [Example 5, 1-[[2-(3,4-Dimethoxyphenyl)-ethyl]-(4-nitrobenzyl)amino]-3-m-tolyloxy-propan-2-ol], in test [1], the inhibition at 10 µM worked out at 59% and the inhibition at 30 µM is 62%. For `COc1ccc(CCN(Cc2ccccc2[N+](=O)[O-])CC(O)COc2cccc(C)c2)cc1OC` (centres unmarked) [Example 11, 1-[[2-(3,4-Dimethoxyphenyl)-ethyl]-(2-nitrobenzyl)amino]-3-m-tolyloxy-propan-2-ol], the IC50 in test [1] was determined as 3.1 µM. In the case of `COc1ccc(CCN(Cc2ccccc2)CC(O)COc2ccc(OCc3ccccc3)cc2)cc1OC` (centres unmarked) [Example 14, 1-{Benzyl-[2-(3,4-dimethoxyphenyl)-ethyl]-amino}-3-(4-benzyloxyphenoxy)-propan-2-ol], in test [1], the IC50 came out at 5 µM. In test [2], the Ki is 16 nM.

In the case of `COc1ccc(CCN(Cc2ccc(F)cc2)CC(O)COc2cccc(C)c2)cc1OC` (centres unmarked) [Example 1, 1-[[2-(3,4-Dimethoxyphenyl)-ethyl]-(4-fluorobenzyl)amino]-3-m-tolyloxy-propan-2-ol], in test [1], the IC50 is 5.2 µM. Still for that read-out and setting: for `COc1ccc(CCN(CCc2ccccc2)CC(O)COc2cccc(C)c2)cc1OC` (centres unmarked) [Example 22, 1-{[2-(3,4-Dimethoxyphenyl)ethyl]-phenethylamino}-3-m-tolyloxy-propan-2-ol] the value was 1.4 µM. In the case of `COc1ccc(CCN(Cc2ccc(Cl)cc2)CC(O)COc2cccc(C)c2)cc1OC` (centres unmarked) [Example 3, 1-{(4-Chlorobenzyl)-[2-(3,4-dimethoxyphenyl)-ethyl]-amino}-3-m-tolyloxy-propan-2-ol], in test [1], the inhibition at 10 µM was determined as 44% and the inhibition at 30 µM amounted to 77%. `COc1ccc(CCN(CC(O)COc2cccc(C)c2)CC2CCCCC2)cc1OC` (centres unmarked) [Example 23, 1-{Cyclohexylmethyl-[2-(3,4-dimethoxyphenyl)ethyl]-amino}-3-m-tolyloxy-propan-2-ol]: in test [1], the IC50 came out at 1.9 µM. In the case of `COc1ccc(CCN(Cc2ccccc2)CC(O)COc2cccc3ccccc23)cc1OC` (centres unmarked) [Example 18, 1-{Benzyl-[2-(3,4-dimethoxyphenyl)-ethyl]-amino}-3-(naphthalen-1-yloxy)-propan-2-ol], the IC50 in test [1] stood at 8.1 µM.

In the case of `COc1ccc(CCN(Cc2ccccc2)CC(O)COc2ccc(C3CCCCC3)cc2C)cc1OC` (centres unmarked) [Example 15, 1-{Benzyl-[2-(3,4-dimethoxyphenyl)-ethyl]-amino}-3-(4-cyclohexyl-2-methylphenoxy)-propan-2-ol], in test [1], the IC50 amounted to 9.2 µM. Take `COc1ccc(CCN(Cc2c[nH]c3ccccc23)CC(O)COc2cccc(C)c2)cc1OC` (centres unmarked) [Example 30, 1-[[2-(3,4-Dimethoxyphenyl)ethyl]-(1H-indol-3-ylmethyl)-amino]-3-m-tolyloxypropan-2-ol]: in test [1], the IC50 was determined as 4.5 µM. The Ki in test [2] is 15 nM. On to `COc1ccc(CCN(C)CC(O)CSc2cccc3ccccc23)cc1OC` (centres unmarked) [Example 29, 1-{[2-(3,4-Dimethoxyphenyl)-ethyl]-methylamino}-3-(naphthalen-1-ylsulfanyl)-propan-2-ol], for which the IC50 in test [1] was found to be 3.6 µM. Still for that read-out and setting: for `COc1ccc(CCN(C)CC(O)COc2ccc(OCc3ccccc3)cc2)cc1OC` (centres unmarked) [Example 26, 1-(4-Benzyloxyphenoxy)-3-{[2-(3,4-dimethoxyphenyl)ethyl]-methylamino}-propan-2-ol] the value was 3.3 µM. With `COc1ccc(CCN(Cc2cccc(Cl)c2)CC(O)COc2cccc(C)c2)cc1OC` (centres unmarked) [Example 7, 1-{(3-Chlorobenzyl)-[2-(3,4-dimethoxyphenyl)ethyl]-amino}-3-m-tolyloxy-propan-2-ol], the inhibition at 10 µM in test [1] was found to be 47%. As for `COc1ccc(CCN(Cc2ccccc2)CC(O)COc2cccc(C(F)(F)F)c2)cc1OC` (centres unmarked) [Example 20, 1-{Benzyl-[2-(3,4-dimethoxyphenyl)-ethyl]-amino}-3-(3-trifluoromethylphenoxy)-propan-2-ol], the IC50 in test [1] amounted to 4.7 µM. In addition, the Ki in test [2] is 620 nM. With `COc1ccc(CCN(Cc2ccccc2)CC(O)CSc2cccc(C(F)(F)F)c2)cc1OC` (centres unmarked) [Example 21, 1-{Benzyl-[2-(3,4-dimethoxyphenyl)-ethyl]-amino}-3-(3-trifluoromethylphenylsulfanyl)-propan-2-ol], in test [1], the half-inhibitory concentration (IC50) was 4.3 µM. Moreover, the Ki in test [2] was 440 nM. With `COc1ccc(CCN(Cc2cccc(F)c2)CC(O)COc2cccc(C)c2)cc1OC` (centres unmarked) [Example 4, 1-[[2-(3,4-Dimethoxyphenyl)-ethyl]-(3-fluorobenzyl)amino]-3-m-tolyloxy-propan-2-ol], in test [1], the IC50 was determined as 6.6 µM. On the same count and under the same terms, as for `COc1ccc(CCN(Cc2ccccc2)CC(O)COc2ccc3c(c2)CCC3)cc1OC` (centres unmarked) [Example 16, 1-{Benzyl-[2-(3,4-dimethoxyphenyl)-ethyl]-amino}-3-(indan-5-yloxy)-propan-2-ol], the figure is 4.8 µM; as for `COc1cccc(CN(CCc2ccc(OC)c(OC)c2)CC(O)COc2cccc(C)c2)c1` (centres unmarked) [Example 10, 1-[[2-(3,4-Dimethoxyphenyl)-ethyl]-(3-methoxybenzyl)amino]-3-m-tolyloxy-propan-2-ol], 5.1 µM.

Source of the values: patent US5482964A, “Substituted phenoxyhydroxypropyl amines as central nervous system agents” (Warner-Lambert Company, priority 1994, dated 1996).
